The values that follow are results of earlier work, collected in patent US12246097B2, “Nanoparticle vaccine adjuvant and methods of use thereof” (Massachusetts Institute of Technology, priority 2018, dated 2025).

The test system of this data set is chick embryo eggs. The note with it: as measured by lethal dose in chick embryo eggs.

For 4′-monophosporyl lipid A [MPLA], the “toxicity reduced by a factor (relative to LPS)” value is on record as “more than 1000”.
